# Data taken from the supplement of paper PMC10307832.
# Compound: CO[C@@H]1[C@H](N(C)C(=O)c2ccccc2)C[C@H]2O[C@]1(C)n1c3ccccc3c3c4c(c5c6ccccc6n2c5c31)C(=O)NC4 [Midostaurin] + Nc1nc2[nH]cc(CCc3ccc(C(=O)N[C@@H](CCC(=O)O)C(=O)O)cc3)c2c(=O)[nH]1 [Pemetrexed] (partner 0.2 µM)
# Test: relative viability (nuclei count vs DMSO), 5 days (fraction); higher = more cells survive
# Conditions: first compound 0.01 µM
# Procedure, shortened: (§1)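 Relative viability is defined as nuclei in treated wells over nuclei in vehicle wells. Duplicate plates were run and medians reported. Lung cancer cell lines in 1536-well plates were dosed by pin tool one day after seeding, with one drug or with a fixed anchor-drug dose plus five library-drug doses (not always all listed) in √10 steps, and nuclei were counted after 5 days.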
row,Cell Line,relative viability
1,NCI-H1563,0.681
2,NCI-H1944,0.61
3,NCI-H358,0.158

# Same assay, conditions: first compound 0.03162 µM
row,Cell Line,relative viability
1,NCI-H2342,0.72
2,NCI-H1650,0.415
3,NCI-H1993,0.542
4,SW 1573,0.957
5,NCI-H838,0.236
6,LCLC-103H,0.53
7,NCI-H520,0.723
8,NCI-H2126,0.627
9,EMC-BAC-2,0.431
10,NCI-H2085,0.784
11,HCC-366,0.15
12,NCI-H1666,0.812
13,NCI-H596,0.551
14,LK-2,0.262
15,NCI-H2087,0.665
16,SK-MES-1,0.826
17,H3255,0.494
18,COR-L23,0.205
19,COR-L 105,0.945
20,NCI-H2170,0.268
21,HCC-44,0.628
22,NCI-H522,1.14
23,SW 900,0.477
24,NCI-H1395,1.09
25,NCI-H1792,0.835
26,NCI-H1793,1.01
27,NCI-H1563,0.748
28,NCI-H1944,0.579
29,NCI-H358,0.167

# Same assay, conditions: first compound 0.1 µM
row,Cell Line,relative viability
1,NCI-H2342,0.794
2,NCI-H1650,0.322
3,NCI-H1993,0.597
4,SW 1573,0.849
5,NCI-H838,0.208
6,LCLC-103H,0.452
7,NCI-H520,0.736
8,NCI-H2126,0.711
9,EMC-BAC-2,0.383
10,NCI-H2085,0.928
11,HCC-366,0.153
12,NCI-H1666,0.74
13,NCI-H596,0.488
14,LK-2,0.299
15,NCI-H2087,0.66
16,SK-MES-1,0.885
17,H3255,0.529
18,COR-L23,0.195
19,COR-L 105,1.11
20,NCI-H2170,0.265
21,HCC-44,0.657
22,NCI-H522,0.941
23,SW 900,0.488
24,NCI-H1395,0.748
25,NCI-H1792,0.756
26,NCI-H1793,0.782
27,NCI-H1563,0.749
28,NCI-H1944,0.566
29,NCI-H358,0.173

# Same assay, conditions: first compound 0.3162 µM
row,Cell Line,relative viability
1,NCI-H2342,0.73
2,NCI-H1650,0.3
3,NCI-H1993,0.51
4,SW 1573,0.752
5,NCI-H838,0.216
6,LCLC-103H,0.467
7,NCI-H520,0.407
8,NCI-H2126,0.688
9,EMC-BAC-2,0.457
10,NCI-H2085,0.632
11,HCC-366,0.156
12,NCI-H1666,0.722
13,NCI-H596,0.551
14,LK-2,0.342
15,NCI-H2087,0.658
16,NCI-H1648,0.823
17,SK-MES-1,0.854
18,H3255,0.579
19,COR-L23,0.188
20,COR-L 105,0.873
21,NCI-H2170,0.266
22,HCC-44,0.663
23,NCI-H522,1.24
24,SW 900,0.478
25,NCI-H1395,0.846
26,NCI-H1792,0.424
27,NCI-H1793,0.673
28,NCI-H1563,0.809
29,NCI-H1944,0.642
30,NCI-H358,0.159

# Compound: COc1cc(-c2nn([C@H]3CC[C@H](N4CCN(C(C)=O)CC4)CC3)c3ncnc(N)c23)ccc1NC(=O)c1cc2ccccc2n1C + CC(C)C[C@H](NC(=O)[C@H](Cc1ccccc1)NC(=O)c1cnccn1)B(O)O [Bortezomib] (partner 0.002 µM)
# Test: as above
# Conditions: first compound 0.0128 µM
# Procedure, shortened: as §1
row,Cell Line,relative viability
1,NCI-H727,0.834
2,NCI-H1650,0.225
3,EBC-1,0.575
4,NCI-H1703,0.286
5,NCI-H1993,1.2
6,SW 1573,0.956
7,NCI-H838,1.18
8,LCLC-103H,1.16
9,NCI-H520,0.741
10,NCI-H2126,1.17
11,EMC-BAC-2,1.03
12,NCI-H2085,1.05
13,Calu-6,1.04
14,HCC-366,0.951
15,NCI-H1666,0.946
16,NCI-H596,1.03
17,NCI-H2087,0.855
18,H3255,0.92
19,COR-L23,0.991
20,COR-L 105,0.73
21,IA-LM,0.847
22,HCC-44,0.993
23,NCI-H1299,1.02
24,NCI-H1792,1.03
25,NCI-H1563,0.916
26,ABC-1,0.212

# Same assay, conditions: first compound 0.04048 µM
row,Cell Line,relative viability
1,NCI-H1650,0.179
2,EBC-1,0.554
3,NCI-H1703,0.45
4,NCI-H1993,1.09
5,SW 1573,1.11
6,NCI-H838,0.817
7,LCLC-103H,1.13
8,NCI-H520,0.624
9,NCI-H2126,1.17
10,EMC-BAC-2,1.12
11,NCI-H2085,1.06
12,Calu-6,1.05
13,HCC-366,0.859
14,NCI-H1666,0.859
15,NCI-H596,1.31
16,NCI-H2087,0.772
17,H3255,0.765
18,COR-L23,1.4
19,COR-L 105,0.854
20,IA-LM,1.07
21,HCC-44,0.886
22,NCI-H1299,1.14
23,NCI-H1792,0.883
24,NCI-H1563,0.882
25,ABC-1,0.32

# Same assay, conditions: first compound 0.128 µM
row,Cell Line,relative viability
1,NCI-H727,0.808
2,NCI-H1650,0.211
3,EBC-1,0.521
4,NCI-H1703,0.298
5,NCI-H1993,1
6,SW 1573,0.98
7,NCI-H838,0.578
